Consider three compounds from paper PMC5698089 (Archives of biochemistry and biophysics, 2017).

What all share (test): surface plasmon resonance, immobilized protein, […] model
What all share (format): binding
(SPR reads the build-up and loss of mass on a sensor chip optically.)

The target in experiment [1] is T1, SR-B2 (Scavenger receptor class B protein 2) (Homo sapiens, UniProt Q14108).
T1 sequence (Q14108 1-478): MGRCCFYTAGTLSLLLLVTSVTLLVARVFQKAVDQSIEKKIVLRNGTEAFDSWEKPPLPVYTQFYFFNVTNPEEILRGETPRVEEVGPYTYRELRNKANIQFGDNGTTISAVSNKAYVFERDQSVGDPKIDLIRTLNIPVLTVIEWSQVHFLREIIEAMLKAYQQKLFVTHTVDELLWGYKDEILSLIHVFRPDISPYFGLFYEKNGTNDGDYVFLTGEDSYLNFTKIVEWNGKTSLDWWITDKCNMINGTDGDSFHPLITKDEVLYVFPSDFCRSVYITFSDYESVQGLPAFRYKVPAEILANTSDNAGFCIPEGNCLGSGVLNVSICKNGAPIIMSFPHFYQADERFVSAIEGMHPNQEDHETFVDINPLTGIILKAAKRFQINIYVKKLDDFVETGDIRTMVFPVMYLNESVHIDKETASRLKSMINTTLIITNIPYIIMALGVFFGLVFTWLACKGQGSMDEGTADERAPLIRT

Experiment [2] has as its target T2, SR-B1 (Scavenger receptor class B protein 1) (Homo sapiens, UniProt Q8WTV0).
T2 sequence (Q8WTV0 33-443 limits assumed): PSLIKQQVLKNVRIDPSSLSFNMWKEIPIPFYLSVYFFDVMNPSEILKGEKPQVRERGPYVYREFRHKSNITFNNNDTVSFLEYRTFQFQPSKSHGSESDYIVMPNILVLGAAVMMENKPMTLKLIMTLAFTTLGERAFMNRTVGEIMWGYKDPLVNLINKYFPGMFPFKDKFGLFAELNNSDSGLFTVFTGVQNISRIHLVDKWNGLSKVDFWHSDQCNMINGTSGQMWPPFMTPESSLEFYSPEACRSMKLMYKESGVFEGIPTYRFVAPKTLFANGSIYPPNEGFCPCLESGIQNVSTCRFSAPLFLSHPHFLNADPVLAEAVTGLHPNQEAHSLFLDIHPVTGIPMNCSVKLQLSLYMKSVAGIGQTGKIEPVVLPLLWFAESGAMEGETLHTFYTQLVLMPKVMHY

The target in experiment [3] is CD36 (Cluster determinant 36) (Homo sapiens, UniProt P16671).
Chain of CD36 (Cluster determinant 36) (P16671 30-439 limits assumed): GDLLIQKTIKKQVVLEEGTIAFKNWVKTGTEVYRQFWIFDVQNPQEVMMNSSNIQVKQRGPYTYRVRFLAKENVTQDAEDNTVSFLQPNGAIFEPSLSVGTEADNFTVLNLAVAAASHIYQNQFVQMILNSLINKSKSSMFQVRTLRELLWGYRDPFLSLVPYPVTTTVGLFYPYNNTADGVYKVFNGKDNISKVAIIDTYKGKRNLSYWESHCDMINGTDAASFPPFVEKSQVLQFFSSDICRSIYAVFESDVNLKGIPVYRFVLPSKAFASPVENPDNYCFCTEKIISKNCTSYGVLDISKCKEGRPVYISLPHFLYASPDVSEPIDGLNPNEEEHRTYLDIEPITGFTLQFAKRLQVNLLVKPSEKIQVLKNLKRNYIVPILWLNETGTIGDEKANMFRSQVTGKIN

The Kd is the constant that tells how readily two partners part at equilibrium. A low value points to higher affinity. For the compound `CC1=C(/C=C/C(C)=C/C=C/C(C)=C/C=C/C=C(C)/C=C/C=C(C)/C=C/C2=C(C)C[C@@H](O)CC2(C)C)C(C)(C)C[C@H](O)C1` [zeaxanthin], the Kd in experiment [1] worked out at 1530 ± 40 nM; in experiment [2], 1600 ± 100 nM; in experiment [3], 920 ± 7 nM.

For the compound `CC1=C(/C=C/C(C)=C/C=C/C(C)=C/C=C/C=C(C)/C=C/C=C(C)/C=C/C2=C(C)C[C@H](O)CC2(C)C)C(C)(C)C[C@H](O)C1` [meso-zeaxanthin], the Kd amounted to 3900 ± 40 nM in experiment [1], 3100 ± 200 nM in experiment [2] and 1660 ± 10 nM in experiment [3].

As for `CC1=C[C@H](O)CC(C)(C)[C@H]1/C=C/C(C)=C/C=C/C(C)=C/C=C/C=C(C)/C=C/C=C(C)/C=C/C1=C(C)C[C@@H](O)CC1(C)C` [lutein], the Kd in experiment [1] was determined as 2510 ± 40 nM; in experiment [2] it was 2040 ± 40 nM; in experiment [3], 730 ± 6 nM.
